# According to US10300091B2, “Sustained release angiogenesis modulating compositions and methods for induction and modulation of angiogenesis” (University of Florida Research Foundation, Inc., priority 2013, dated 2019):
# Tested on: HUVEC
# Assay: Screening of TSP-1 in hPE-based angiogenesis assay
# Assay type: cell-based, human
# Description: Unless otherwise stated, 32 μl of placental extract was thawed and pipetted into each well of a 96 well plate. The extract was evenly coated onto the bottom of each well using an orbital shaker at 30 RPM for 1 minute. The coated plate was then incubated at 37° C. for 30 minutes. HUVEC were then plating by direct pipetting at 20000 cells/cm^2, 40000 cells/cm^2, or 80000 cells/cm^2. Multiple time points were investigated at each concentration including at days 1, 3, and 5. Thrombospondin-1 was tested as an angiogenesis inhibiting drug using final concentrations 0, 5, 10, 20, and 35 μg/μL diluted in endothelial cell media
# Network formation was analyzed after staining at a concentration of 2 μg/mL Calcein AM (Invitrogen-Life Technologies, NY, USA) with Endothelial cell culture media. In a dark room, dyed cells were incubated at 37° C., 5% CO2 for 30 minutes, and then images were taken using a Zeiss Axiovert 200 inverted Fluorescence microscope (Zeiss, Thornwood, N.Y.). Images were analyzed to determine the tubule length, tubule width, branch points, and other meshwork characterizations using ImageJ 1.45s (NIH, Bethesda, Md.). Branch points were assigned manually as the positions at every node where branches meet or tubules sprout, and tubule length was assessed by determining the curve length from branch point to connected branch point. Tubule width measurements were carried out in three different zones per tubule, with two zones each 10 μm from the start and end and one zone in the middle of the curve length. The percent area of coverage was determined by processing the images using the imageJ function “binary>>convert to mask” followed by measurement of the “mean.” In TSP-1 experiments, final values were normalized to no dose samples, calculated as the percentage of “1” values relative to the total count of pixel values, and given as “% area coverage”.
substance,measurement,setting,value
TSP-1: glycoprotein with potent inhibition activity on neovascularization; model anti-angiogenic drug,angiogenic network formation with TSP-1,"HUVEC on hPE treated plates, 1 d of culture",significantly reduced angiogenic network formation
same,total tubule-length and branch points as a function of TSP-1 concentration,"hPE-coated plates, 0-35 μg/μL TSP-1",decrease linearly
same,effect of TSP-1 on control HUVECs,"seeded directly onto uncoated tissue culture plates, 1 d",not affected
